Experimental data reported in PMC9915011, “Polymyxin B Conjugates with Bio-Inspired Synthetic Polymers of Different Nature” (International Journal of Molecular Sciences, 2023).
Values after ≈ are worked out from the molar mass of the structure shown.

How the values were obtained:
[1] = test system: P. aeruginosa (ATCC 27853); assay: MIC by microdilution in Müller–Hinton broth; type: cell-based, Pseudomonas aeruginosa; settings: 18 h, OD 630 nm, n = 9
Text: P. aeruginosa (ATCC 27853) from Museum of Microbiological Cultures of State Research Institute of Highly Pure Biopreparations FMBA (St. Petersburg, Russia) and Müller–Hinton Broth (HiMedia, Mumbai, India) were used to study the antibacterial effect of PMX B and its conjugates. HEK 293T cells were purchased from the cell culture collection of the Institute of Cytology of Russian Academy of Sciences (St. Petersburg, Russia).
The minimum inhibitory concentration (MIC) of polymyxin B in the conjugates was determined by the microdilution method in Müller–Hinton broth. Before the samples were tested against P. Aeruginosa, they were checked for microbiological purity to exclude possible contamination. In all cases, the absence of microbial growth on Luria–Bertani agar was detected. […] The plate was incubated for 18 h at 37 °C and then the optical density in the wells was measured at 630 nm using a microplate reader (ELx808™ Absorbance Microplate Reader, BioTek-Agilent, Santa Clara, CA, USA). Relative bacterial growth (%) was calculated from the data of OD measured for samples and control according to the equation: (2) Relative bactearial growth=OD630 sample at Cx−OD630 blank/OD630 positive control−OD630 blank×100% where Cx is a certain concentration of the sample. […]

S. aureus = settings: cited from earlier work
Text: A series of conjugates of loracarbef (cephalosporins) and ciprofloxacin (fluroquinolones) with sideromycins (siderophores) was synthesized and tested against a panel of ESKAPEE bacteria (Enterococcus faecium, S. aureus, Klebsiella pneumoniae, A. baumannii, P. aeruginosa, Enterobacter aerogenes, E. coli).

[2] = test system: Acinetobacter baumannii (Ab ATCC 19606); settings: cited from earlier work
P. aeruginosa = settings: free colistin; cited from earlier work
Description: According to the published works, many factors affect the MIC for conjugates linked with amide bonds. For example, Dubashynskaya et al. observed the dependence of MIC on the degree of substitution (DS). In particular, when the DS was 8%, the MIC against P. aeruginosa for hyaluronan–colistin conjugates was 1 µg/mL, the same as for free colistin. At the same time, a decrease in DS to 5 and 3% was accompanied with the MIC increase to 4 and more than 8 µg/mL, respectively.

HEK 293T cells = assay: MTT cytotoxicity in HEK 293T cells, 48 h; type: cell-based, human; settings: free polymers and free PMX B, tested 4 to 1000 µg/mL, mean ± SD, n = 4
Description: The cell viability was determined after 48 h using the MTT assay (Figure 6).
HEK 293T cells were cultivated in DMEM/F12 medium with 10% FCS, 2 mM glutamine, and 1% gentamicin (Sigma-Aldrich, Darmstadt, Germany). In 96-well plates, 3.5 × 10^3 cells in 100 µL were seeded per well and left for adhesion at 37 °C for 24 in a humidified 5% CO2 atmosphere. After that, the medium in the wells was replaced with 200 µL of solution containing the test samples at the specified concentrations (n = 4) and left for incubation under the same conditions for 48 h. Then, the medium was removed and 100 µL of MTT reagent solution (5 mg/mL stock solution) was added to each well. The plates were incubated in the CO2 incubator for 3 h at 37 °C. Finally, the solution in the well was replaced with 50 µL of DMSO to dissolve formazan crystals and the optical density in each well was measured at 570 nm using fluorescent plate reader (Fluoroscan Ascent, Thermo Fisher Scientific Inc., Waltham, MA, USA). The wavelength of 690 nm was used to measure the background absorbance. The data obtained were normalized as a percentage of the control. Free polymers and PMX B were tested at concentrations ranging from 4 to 1000 µg/mL.

Q: For `CC(=O)N(O)CCCCCNC(=O)CCC(=O)N(O)CCCCCNC(=O)CCC(=O)N(O)CCCCCN` [DFOA, deferoxamine], which antimicrobial activity ([1]; P. aeruginosa, concentration range of 0.25–64 μg/mL) is on record?
A: Its antimicrobial activity is “neither polymers nor DFOA exhibited antimicrobial activity”.

Q: For `N[C@@H](C(=O)N[C@@H]1C(=O)N2C(C(=O)O)=C(Cl)CC[C@H]12)c1ccccc1` [loracarbef], which MIC (S. aureus) is on record?
A: Its MIC is 1 µM (≈ 0.35 µg/mL).

Q: With colistin as the molecule, how does the MIC [2] read?
A: Its MIC is 1 µg/mL.

Q: What about the MIC (P. aeruginosa) of the same molecule?
A: The MIC was 1 µg/mL.

Q: Which MIC ([1]; P. aeruginosa ATCC 27853, microdilution, Müller–Hinton broth, 1 × 10^7 CFU/mL, 37 °C, MIC of polymyxin B in the conjugates) does the source give for polymyxin B [PMX B] here?
A: The MIC was 4 µg/mL.

Q: And the IC50 (HEK 293T cells)?
A: The IC50 was 130 ± 14 µg/mL.
